These results are taken from PMC2362229 (British Journal of Cancer, 1999).

pIC50, pKi: −log10 of the molar value.

Data set [1] addresses T1, Mdr1b P-gp (Rattus norvegicus, UniProt P43245). The experiment in a line: ATP-dependent [3H]daunorubicin transport into rat hepatocyte canalicular membrane vesicles.
Data set [2] concerns the target T2, Mdr1 P-gp (Rattus norvegicus, UniProt P43245).
T2 construct: Membrane fractions enriched in the hepatocyte canalicular membrane domain were prepared and characterized from rat and human liver; from tissue; host or cells: rat liver canalicular membrane vesicles
The experiment in a line: ATP-dependent N-pentyl-[3H]quinidinium transport in rat hepatocyte canalicular membrane vesicles. The data set is classed as biochemical.

Data set [3] is described as follows: Bile flow in bile duct-cannulated rats. The data set is classed as in vivo, rat. The note with it: GG918 4 mol kg1 body weight i.v.
Data set [4] deals with T3, conjugate export pump MRP2 (Rattus norvegicus, UniProt Q63120).
T3 construct: Membrane fractions enriched in the hepatocyte canalicular membrane domain were prepared and characterized from rat and human liver; from tissue; host or cells: liver of male Wistar rats: canalicular membrane vesicles (A7) or the liver in vivo (A12)
Put plainly: In vivo elimination of N-[3H]acetyl-LTE4 into bile. The note with it: GG918 4 mol kg1.

Data set [5] concerns the target T2, Mdr1 P-gp. Put plainly: ATP-dependent [14C]doxorubicin transport in rat hepatocyte canalicular membrane vesicles. The data set is classed as biochemical. The note with it: read-out: half-maximal inhibition of [14C]doxorubicin transport (IC50).
Data set [6] concerns the target T4, recombinant rat Mdr1b P-gp (Rattus norvegicus, UniProt P43245).
T4 construct: made in house; host or cells: Sf9 insect cells, recombinant baculovirus (mdr1b-BV)
Put plainly: Photoaffinity labelling with [3H]azidopine, membranes of recombinant mdr1b-BV-infected Sf9 cells. The data set is classed as binding. The note with it: […] GG918.

A further data set concerns the target T5, BSEP (Rattus norvegicus, UniProt O70127).
T5 construct: Membrane fractions enriched in the hepatocyte canalicular membrane domain were prepared and characterized from rat and human liver; from tissue; host or cells: liver of male Wistar rats: canalicular membrane vesicles (A8) or the liver in vivo (A13)
T5 sequence (O70127 1-1321): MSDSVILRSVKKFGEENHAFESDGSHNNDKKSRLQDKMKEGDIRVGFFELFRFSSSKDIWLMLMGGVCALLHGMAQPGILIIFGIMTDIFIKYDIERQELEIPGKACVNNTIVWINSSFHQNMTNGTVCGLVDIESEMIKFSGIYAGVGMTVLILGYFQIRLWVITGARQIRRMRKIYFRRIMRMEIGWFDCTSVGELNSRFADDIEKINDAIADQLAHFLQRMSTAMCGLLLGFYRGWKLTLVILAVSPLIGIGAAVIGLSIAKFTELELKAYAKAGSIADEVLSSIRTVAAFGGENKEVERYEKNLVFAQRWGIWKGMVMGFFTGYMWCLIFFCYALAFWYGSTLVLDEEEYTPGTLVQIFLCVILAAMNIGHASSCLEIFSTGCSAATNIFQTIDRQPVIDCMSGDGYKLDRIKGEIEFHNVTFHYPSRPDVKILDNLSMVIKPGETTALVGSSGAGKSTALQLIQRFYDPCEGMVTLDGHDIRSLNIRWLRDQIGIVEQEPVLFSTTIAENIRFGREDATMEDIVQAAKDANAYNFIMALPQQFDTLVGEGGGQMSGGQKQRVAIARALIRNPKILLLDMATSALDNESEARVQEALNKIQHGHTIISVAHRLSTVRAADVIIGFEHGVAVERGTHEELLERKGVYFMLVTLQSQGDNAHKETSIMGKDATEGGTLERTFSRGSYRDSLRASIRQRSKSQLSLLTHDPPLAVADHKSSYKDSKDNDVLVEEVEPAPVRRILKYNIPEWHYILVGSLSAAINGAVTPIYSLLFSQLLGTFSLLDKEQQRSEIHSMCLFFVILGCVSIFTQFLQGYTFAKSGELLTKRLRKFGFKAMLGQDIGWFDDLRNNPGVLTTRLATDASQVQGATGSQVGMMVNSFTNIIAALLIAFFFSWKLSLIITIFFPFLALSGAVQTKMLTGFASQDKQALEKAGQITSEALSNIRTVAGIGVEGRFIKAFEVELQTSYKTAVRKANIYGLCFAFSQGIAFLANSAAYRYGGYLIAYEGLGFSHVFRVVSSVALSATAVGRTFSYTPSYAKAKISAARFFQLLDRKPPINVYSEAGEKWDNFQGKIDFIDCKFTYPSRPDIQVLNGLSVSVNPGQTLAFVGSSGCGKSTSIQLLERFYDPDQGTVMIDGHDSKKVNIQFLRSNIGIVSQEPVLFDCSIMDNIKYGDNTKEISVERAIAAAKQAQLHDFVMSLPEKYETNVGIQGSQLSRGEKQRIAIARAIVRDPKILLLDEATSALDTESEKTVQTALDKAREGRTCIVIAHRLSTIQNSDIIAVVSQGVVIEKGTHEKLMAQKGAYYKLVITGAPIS
The experiment in a line: In vivo elimination of [3H]taurocholate into bile. The note with it: GG918 4 mol kg1 body weight.

Another data set deals with MDR1 P-glycoprotein. Put plainly: in vitro. The note with it: Wistar (rat), human.
For data set [7], the target named is T1, Mdr1b P-gp. The experiment in a line: In vivo elimination of [14C]doxorubicin into bile. The note with it: GG918 14 mol kg1; 60 min. On the set-up: from tissue; host or cells: liver of male Wistar rats: the liver in the living animal (A10, A11).
The target of data set [8] is T3, conjugate export pump MRP2. Put plainly: ATP-dependent [3H]LTC4 transport in rat hepatocyte canalicular membrane vesicles. The data set is classed as biochemical. The note with it: LTC4 50 nM; not significantly inhibited up to 20 µM.
The target in data set [9] is T6, rat P-gp (145 kDa protein) (Rattus norvegicus, UniProt P43245).
T6 construct: Membrane fractions enriched in the hepatocyte canalicular membrane domain were prepared and characterized from rat and human liver; from tissue; host or cells: rat liver canalicular membrane vesicles
Put plainly: Photoaffinity labelling with [3H]azidopine, rat canalicular membranes. The data set is classed as binding.

Data set [10] concerns the target T7, bile salt export pump (BSEP) (Rattus norvegicus, UniProt O70127).
T7 construct: Membrane fractions enriched in the hepatocyte canalicular membrane domain were prepared and characterized from rat and human liver; from tissue; host or cells: liver of male Wistar rats: canalicular membrane vesicles (A8) or the liver in vivo (A13)
T7 sequence (O70127 1-1321): T5 sequence (O70127 1-1321)
Put plainly: ATP-dependent [3H]taurocholate transport in rat hepatocyte canalicular membrane vesicles. The data set is classed as biochemical. The note with it: TC 5 M; 0.5% fetal calf serum; read-out: inhibition by 50% of ATP-dependent BSEP, [3H]taurocholate as substrate (IC50).

T1 sequence (P43245 whole entry): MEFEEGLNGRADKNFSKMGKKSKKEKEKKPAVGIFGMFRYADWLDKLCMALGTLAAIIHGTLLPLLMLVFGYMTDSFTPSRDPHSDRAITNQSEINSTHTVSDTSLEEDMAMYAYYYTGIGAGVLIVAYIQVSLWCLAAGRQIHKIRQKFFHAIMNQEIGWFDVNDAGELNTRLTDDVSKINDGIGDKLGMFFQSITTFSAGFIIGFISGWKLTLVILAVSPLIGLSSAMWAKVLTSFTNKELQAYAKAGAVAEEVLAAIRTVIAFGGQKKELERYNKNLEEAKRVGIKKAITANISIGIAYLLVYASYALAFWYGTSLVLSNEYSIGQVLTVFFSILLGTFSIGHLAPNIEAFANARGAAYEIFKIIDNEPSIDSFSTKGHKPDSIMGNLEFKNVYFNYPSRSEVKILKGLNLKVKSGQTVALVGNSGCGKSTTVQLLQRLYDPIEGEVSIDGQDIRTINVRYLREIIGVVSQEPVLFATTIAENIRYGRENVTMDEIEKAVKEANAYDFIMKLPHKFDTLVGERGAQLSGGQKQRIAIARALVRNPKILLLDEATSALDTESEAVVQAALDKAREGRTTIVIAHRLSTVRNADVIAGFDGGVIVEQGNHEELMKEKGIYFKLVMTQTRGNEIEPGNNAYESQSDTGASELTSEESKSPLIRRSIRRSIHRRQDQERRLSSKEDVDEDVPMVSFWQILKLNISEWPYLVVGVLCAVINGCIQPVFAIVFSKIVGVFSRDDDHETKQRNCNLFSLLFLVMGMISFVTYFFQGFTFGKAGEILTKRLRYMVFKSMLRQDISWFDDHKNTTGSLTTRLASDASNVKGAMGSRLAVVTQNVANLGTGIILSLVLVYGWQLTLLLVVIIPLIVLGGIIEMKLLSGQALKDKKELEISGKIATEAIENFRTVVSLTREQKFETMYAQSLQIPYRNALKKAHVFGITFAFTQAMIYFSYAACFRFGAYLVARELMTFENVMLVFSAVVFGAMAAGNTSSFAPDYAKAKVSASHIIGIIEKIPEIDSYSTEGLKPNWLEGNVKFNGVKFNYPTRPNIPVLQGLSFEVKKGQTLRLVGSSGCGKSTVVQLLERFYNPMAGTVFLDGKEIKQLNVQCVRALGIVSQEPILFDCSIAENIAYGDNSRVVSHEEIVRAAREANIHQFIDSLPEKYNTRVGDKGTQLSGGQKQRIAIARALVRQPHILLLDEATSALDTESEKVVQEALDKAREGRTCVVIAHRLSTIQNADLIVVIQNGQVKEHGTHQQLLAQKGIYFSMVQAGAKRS
T6 sequence (P43245 whole entry, the tested form may be a part): as the sequence (P43245 whole entry) above
T2 sequence (P43245 whole entry, the tested form may be a part): as the sequence (P43245 whole entry) above
T4 sequence (P43245 whole entry): as above

`COc1cccc2c1C(=O)c1c(O)c3c(c(O)c1C2=O)C[C@@](O)(C(C)=O)C[C@@H]3O[C@H]1C[C@H](N)[C@H](O)[C@H](C)O1` [daunorubicin]: the “Vmax of ATP-dependent daunorubicin transport” value at Mdr1b P-gp [1] (Lineweaver-Burk plots, rat canalicular vesicles) was 721 pmol mg1 min1.

On to `COc1cc2c(cc1OC)CN(CCc1ccc(NC(=O)c3cccc4c(=O)c5cccc(OC)c5[nH]c34)cc1)CC2` [GG918, N-{4-[2-(1,2,3,4-tetrahydro-6,7-dimethoxy-2-isoquinolinyl)-ethyl]-phenyl}-9,10-dihydro-5-methoxy-9-oxo-4-acridine carboxamide], for which the “suppression of ATP-dependent transport of N-pentyl-[3H]quinidinium” value was determined as 42% at Mdr1 P-gp [2] (10 nM GG918) and 98% on Mdr1 P-gp [2] (100 nM GG918). Besides, the pIC50 is 8.10 on Mdr1 P-gp [2] (rat hepatocyte canalicular membranes, substrate 1 M, read-out: half-maximal inhibition of N-pentyl-[3H]quinidinium transport (IC50)); 7.10 on Mdr1 P-gp [5]; 7.70 at Mdr1b P-gp [1] (IC50 Dau (Figure 7), DAU 20 M, Figure 7 inset); about 7.70 against Mdr1b P-gp [1] (half-maximal inhibition of [3H]daunorubicin transport, [3H]daunorubicin 20 M, 0.5% fetal calf serum); 7.10 to 8.10 in the data set on MDR1 P-glycoprotein; under 4.70 in data set [8]. Also, the pIC50 in data set [10] is about 5.52. Besides, the bile flow result in [3] is given as “not affected”. Further, the “inhibition of N-[3H]acetyl-LTE4 secretion” value in data set [4] was “No significant inhibition”. In data set [6], the “reduction of [3H]azidopine incorporation into the Mdr1b protein” value stood at 80%. The same molecule had a pKi at Mdr1b P-gp [1] of 7.46. For the same molecule, the “manner of inhibition of [3H]daunorubicin transport” value on Mdr1b P-gp [1] (rat canalicular inside-out vesicles, 30 nM GG918) is “competitive”. For the same molecule, the “effect on biliary excretion of [3H]taurocholate” value at BSEP was “did not affect”. On Mdr1b P-gp [7], the “[14C]doxorubicin elimination suppressed to (% of untreated)” value is listed as 27%. For the same molecule, the “reduction of [3H]azidopine labelling of rat P-gp” value in data set [9] (40 µM GG918) is listed as 78%; in data set [9] (10 M GG918) it was 38%. The “concentration for potent competition with [3H]azidopine photoaffinity labelling versus concentration for potent inhibition of substrate transport by Mdr1b P-gp” value in [9] (fold higher) is given as “at least 100 fold”.
